Source: US7270977B2, “Polypeptides for identifying fungicidally active compounds” (priority 2001, dated 2007)

Molecular target: U. maydis IMPDH (Imp1) (Ustilago maydis, UniProt A0A0D1CRJ0, T408N)
Assay: Inhibition of U. maydis IMPDH (NADH fluorescence assay)
Type: biochemical
Conditions: negative decimal logarithm of the molar IC50 for 50% inhibition of the enzyme; read-out: pI50 (converted)
Protocol: The activity, or the decrease or increase in activity, can also preferably be determined by means of the conversion of the substrate NAD^+ into NADH, where the lower, or inhibited, activity of the polypeptide according to the invention is determined with reference to a less sharp increase in fluorescence emitted by the smaller amounts of NADH formed (see also FIG. 1). NADH fluoresces more than NAD^+.
To this end, the polypeptide according to the invention is incubated at a suitable concentration, which is preferably between 0.1 and 20 ng/μl, preferably between 0.13 and 10 ng/μl, of the enzyme, with NAD^+ at a concentration of from 5 to 400 μM, preferably 10 to 100 μM, and IMP at a concentration of from 5 to 400 μM, preferably from 50 to 300 μM, at a suitable temperature. The IMP concentration is preferably in each case twice as high as the concentration of the substrate NAD^+. It must be borne in mind that substrate inhibition can be observed for both substrates, viz. NAD^+ and IMP, and the used concentrations of the two substrates should therefore be checked in this respect. The temperature may be in a range of from 8 to 37° C. The measurement is preferably carried out at from 10 to 30° C., room temperature is also suitable in particular. The reaction is carried out in a usual buffer (“assay buffer”) which can contain preferably for example 20 to 200 mM KCl, 1 to 5 mM DTE or DTT, 0.01 to 1% BSA, 0.01 to 0.1% Tween 20 and 2 to 10% glycerol and brought to a pH of 8, for example using 25 to 100 mM Tris buffer (see Example 2). […]
The formation of NADH in the course of the reaction is then monitored with reference to the fluorescence at an excitation wavelength of 360 nm and an emission wavelength of 465 nm. The increase in fluorescence in the presence of a chemical compound can then be compared with the increase in fluorescence in the absence of a chemical compound. […] The period within which the increase in fluorescence is measured can be varied. A slow increase in fluorescence can be observed over the course of several hours, until, after 5 to 10 hours, a plateau is reached (see also FIG. 3). As a rule, the fluorescence decreases thereafter. […]
The measurement can also be carried out in formats conventionally used for HTS or UHTS assays, for example in microtitre plates, into which for example a total volume of 5 to 50 μl is introduced per reaction or per well and the individual components are present in one of the above-stated final concentrations. […] The mixture is then incubated for example for up to 2 or 3 hours at a suitable temperature, and the increase in fluorescence is measured at an excitation wavelength of 360 nm and an emission wavelength of 460 nm. […]

SMILES: c1coc(-c2oc3nc4c(-c5ccco5)c(-c5ccco5)oc4nc3c2-c2ccco2)c1 [Example 4]
- IC50: 0.2 µM

SMILES: COC1=Cc2ccccc2C(=O)C1=O [Example 2]
- IC50: 12.6 µM

SMILES: CCCCCCCCCCCCCCCCOc1ccc(CCCC(=O)O)cc1 [Example 1]
- IC50: 25.1 µM

SMILES: CN1CCN(C)c2cc3nc4ccccc4nc3cc21 [Example 3]
- IC50: 10 µM
